Here are results for 1 substance from article PMC10597491 (PLOS ONE, 2023).

Bridge positions count the residues as written; N and C are the ends. Ends that are not written are not given here.

In one assay the target is T1, IL-7R (Homo sapiens, UniProt P16871+P31785).
T1 construct: constructed to express full-length human IL-7Rα in TF-1 cells; TF-1 cells, which naturally express γc, but not IL-7Rα; expressed in transfected cells
T1 sequence (P16871 21-459): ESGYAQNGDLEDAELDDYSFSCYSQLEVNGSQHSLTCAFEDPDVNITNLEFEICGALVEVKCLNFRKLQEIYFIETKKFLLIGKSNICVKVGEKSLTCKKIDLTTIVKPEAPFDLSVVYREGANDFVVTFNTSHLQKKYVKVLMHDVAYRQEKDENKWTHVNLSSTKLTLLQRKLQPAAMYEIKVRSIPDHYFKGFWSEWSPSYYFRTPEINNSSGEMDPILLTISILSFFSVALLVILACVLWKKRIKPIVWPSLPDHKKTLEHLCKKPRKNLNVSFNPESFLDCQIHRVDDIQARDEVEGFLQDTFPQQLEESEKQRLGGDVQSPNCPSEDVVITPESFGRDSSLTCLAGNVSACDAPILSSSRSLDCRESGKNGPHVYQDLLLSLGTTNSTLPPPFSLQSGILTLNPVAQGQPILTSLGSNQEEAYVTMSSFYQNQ
T1 sequence (P31785 23-369): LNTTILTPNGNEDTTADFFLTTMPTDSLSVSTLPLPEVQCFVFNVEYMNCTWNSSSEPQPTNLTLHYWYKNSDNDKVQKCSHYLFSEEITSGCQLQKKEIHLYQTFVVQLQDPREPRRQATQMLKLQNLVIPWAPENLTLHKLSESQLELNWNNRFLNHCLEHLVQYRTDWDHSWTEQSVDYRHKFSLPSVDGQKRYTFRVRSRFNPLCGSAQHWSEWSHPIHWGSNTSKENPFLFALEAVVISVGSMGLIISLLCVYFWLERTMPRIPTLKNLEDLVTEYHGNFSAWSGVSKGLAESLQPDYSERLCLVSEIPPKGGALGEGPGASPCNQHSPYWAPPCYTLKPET
As to the kind of experiment: STAT5 phosphorylation in TF1-7Rα cells. Format: cell-based. As for the experimental part:
The synthetic peptide MDK1472 was designed to bind simultaneously to IL-7Rα and γc subunits and was tested for its ability to induce phosphorylation of STAT5, the primary IL-7R signaling pathway.
Reactions were stopped and cell lysates prepared for pSTAT5 analysis.
(§1) Cells were deprived of growth factors by overnight incubation at 5×10^5 cells/mL in starvation medium (RPMI 1640 + 4.5 g/L glucose + 0.2% FBS + 2 mM L-glutamine + 1 mM NaPyr + 10 mM HEPES + 0.5x penicillin-streptomycin with no cytokine supplement) in T75 flasks. For assays, cells were plated in 96-well V-bottom plates at 2×10^5 cells/well. Three-fold serial dilutions in starvation medium of the test compounds or cytokine were added to the cells and incubated for 30 min at 37°C. Following incubation, cell extracts were prepared by adding a mixture of 10x Cell Lysis Buffer (Cell Signaling Technology Cat# 9803) and 100x HALT Phosphatase and Protease Inhibitor Cocktail (Thermo Fisher Cat# 78442) directly to the wells. The plates were agitated at 25°C for 5 min to prepare cell extracts for immediate use or to be stored at -80°C until assay. Detection of pSTAT5 was performed using a PathScan® Phospho-Stat5 (pTyr694) Sandwich ELISA Kit (Cell Signaling Technology Cat# 7113). Detection of pSTAT6 was performed using a PathScan® Phospho-Stat6 (pTyr641) Sandwich ELISA Kit (Cell Signaling Technology Cat# 7275). Detection of pSTAT3 was performed using a PathScan® Phospho-Stat3 (pTyr705) Sandwich ELISA Kit (Cell Signaling Technology Cat# 7300). Cell lysates were added to pre-coated ELISA wells and incubated at 4°C overnight. Primary and secondary antibody incubations and wash steps were performed according to the protocols supplied by the manufacturer. Assays were developed using TMB substrate (Surmodics Cat# TMBW-1000-01) for 5–10 min at 25°C and the reaction was stopped using STOP solution (Surmodics Cat# LSTP-1000-01).

Another assay has as its target T2, IL-2βγc receptor (Homo sapiens, UniProt P31785).
T2 construct: pcDNA3.1 expression vector encoding full-length IL-2Rβ, IL-7Rα, IL-9Rα, or IL-21Rα; TF-1 cells naturally express γc and IL-4Rα; expressed in transfected cells
T2 sequence (P31785 23-369): T1 sequence (P31785 23-369)
Nature of the assay: IL-2-induced pSTAT5 in TF-1 cells expressing IL-2/15Rβ. Format: cell-based. Here is the method: as §1, with “Primary and secondary antibody incubations and wash steps were performed according to the protocols supplied by the manufacturer. Assays were developed using TMB substrate (Surmodics Cat# TMBW-1000-01) for 5–10 min at 25°C and the reaction was stopped using STOP solution (Surmodics Cat# LSTP-1000-01).” left out

As for “Ac-GWGIPWCTLDPGSLQCAWLGKHGGGGSGGVVCQDWEGVELCWQGG (disulfide 7-16, 32-41) [MDK1472]”, it took 18 nM to reach a half-maximal effect at IL-7R (Fig 4A dose response, 30 min at 37°C, pSTAT5 ELISA) (EC50). In addition, the “efficacy (Emax) of STAT5 phosphorylation relative to IL-7” value on IL-7R (TF1-7Rα cells, Fig 3) is listed as “full efficacy”. The “dependence of agonist activity on IL-7Rα expression” value at IL-7R (TF-1 parental (γc+) versus TF1-7Rα cells) was “completely dependent on IL-7Rα expression”. The IC50 (as a rule, the concentration that gives 50% inhibition) at IL-2βγc receptor was about 5000 nM.
